# Measured values reported in patent publication US20070166712A1, “Cyp2s1 as target for diagnosis and therapy of skin diseases” (UNIVERSITY COURT OF THE UNIVERSITY OF DUNDEE, priority 2003, published 2007).
# Assays:
# CYP2S1 mRNA expression = CYP2S1 mRNA expression in skin after topical chemicals (Taqman quantitative real-time RT-PCR); type: in vivo, human; conditions: healthy volunteers, occluded 96 hours on buttock skin, vs control skin
# CYP1A1 mRNA expression = CYP1A1 mRNA expression in skin of volunteer panel after topical chemicals; type: in vivo, human; conditions: topical application, data not shown
# CYP2S1 = target: T1, CYP2S1 (Homo sapiens, UniProt Q96SQ9); assay: atRA metabolism by heterologously expressed CYP2S1 (E. coli membranes co-expressing CYP2S1 and CPR, HPLC); type: in vitro ADME; conditions: NADPH regenerating system
# T1 construct: made in house; host or cells: E. coli (membrane fraction)
# T1 sequence (Q96SQ9 1-504): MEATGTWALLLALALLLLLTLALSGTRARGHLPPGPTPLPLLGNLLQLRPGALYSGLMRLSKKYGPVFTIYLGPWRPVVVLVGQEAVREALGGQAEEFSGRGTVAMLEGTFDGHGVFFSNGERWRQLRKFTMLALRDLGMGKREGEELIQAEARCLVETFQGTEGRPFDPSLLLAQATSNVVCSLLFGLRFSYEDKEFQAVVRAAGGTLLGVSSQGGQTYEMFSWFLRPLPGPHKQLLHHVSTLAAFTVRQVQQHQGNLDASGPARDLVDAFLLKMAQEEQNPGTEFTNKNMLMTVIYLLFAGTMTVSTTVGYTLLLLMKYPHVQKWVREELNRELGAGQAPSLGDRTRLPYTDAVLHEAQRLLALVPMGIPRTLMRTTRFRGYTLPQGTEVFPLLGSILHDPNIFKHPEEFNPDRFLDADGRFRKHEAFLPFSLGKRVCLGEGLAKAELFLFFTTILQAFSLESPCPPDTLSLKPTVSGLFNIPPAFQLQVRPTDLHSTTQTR
# Description: (§1) E. Coli membranes co-expressing CYP2S1 and CPR were incubated with atRA as previously described^17. CYP2S1-derived atRA metabolites (FIG. 4A) were separated by HPLC and identified by comparison with the elution profile of human liver microsomes (FIG. 4B). Control incubations were performed in the absence of the NADPH regenerating system (FIG. 4C).
# (§2) The CYP2S1 cDNA, a generous gift from Professor Oliver Hankinson, Department of Pathology and Laboratory Medicine, Jonsson Comprehensive Cancer Centre and Molecular Biology Institute, UCLA, Los Angeles was constructed and co-expressed with CPR in E. Coli as previously described^16. CYP2S1 metabolism of atRA was performed using HPLC analysis as previously described^17, using E. coli membranes co-expressing CYP2S1 and CPR and an NADPH regenerating system. Control reactions were performed in the absence of CYP2S1 and in the absence of the NADPH regenerating system. CYP2S1 metabolites were identified by comparison with elution times and UV profiles of atRA metabolites generated by human liver microsomes which had previously been identified using authentic standards.
# human liver microsomes = assay: atRA metabolism by human liver microsomes (HPLC); type: in vitro ADME; conditions: confirmed with authentic standard
# Description: as §1, §2
# CYP3A5 = assay: Cutaneous expression and regulation by ATRA of additional CYP450s; type: in vivo
compound,measurement,setting,value
"CC1=C(/C=C/C(C)=C/C=C/C(C)=C/C(=O)O)C(C)(C)CCC1 [atRA, all-trans retinoic acid]",individuals showing marked CYP2S1 induction (mRNA),CYP2S1 mRNA expression,6/14
same,effect on CYP1A1 mRNA expression,CYP1A1 mRNA expression,suppressed
same,atRA metabolites produced by CYP2S1,CYP2S1,"4-OH-RA and 5,6-epoxy RA"
same,formation of 4-oxo RA metabolite by CYP2S1,CYP2S1,did not appear to produce
same,formation of 4-oxo RA metabolite by human liver microsomes,human liver microsomes,produced by human liver microsomes
same,inducibility of CYP3A5 in human skin,CYP3A5,not inducible
